The values that follow come from patent US9051551B2, “Methods and compositions for increasing sensitivity to tyrosine kinase inhibitors” (The University of Western Australia, priority 2009, dated 2015).

In one data set the test system is HN5 HNC cell line. In words: Erlotinib sensitivity assay (CellTitre 96 cell viability). The conditions noted are these: Homo sapiens, HN5, 72 h, read-out: Erlotinib sensitivity (EC50).
For a further data set, the system named is SCC-9 HNC cell line. Described as above. Particulars: Homo sapiens, SCC-9, 72 h, read-out: Erlotinib sensitivity (EC50).
In the next data set the test system is FaDu HNC cell line. The description is as above. Particulars: Homo sapiens, 72 h, read-out: Erlotinib sensitivity (EC50).
For data set [1] the following is noted: cited from earlier work.

The structures appear in SMILES notation.

As a reminder, the EC50 is the midpoint of the concentration-response curve. Take `C#Cc1cccc(Nc2ncnc3cc(OCCOC)c(OCCOC)cc23)c1` [erlotinib, N-(3-ethynylphenyl)-6,7-bis(2-methoxyethoxy)quinazolin-4-amine]: the EC50 stood at 640 nM with HN5 HNC cell line, 2150 nM in the data set with SCC-9 HNC cell line and 8260 nM in the data set on FaDu HNC cell line. Further, the “Concentration in serum of patients treated with erlotinib” value in data set [1] is 3000 to 10000 nM.
